Results on 29 compounds are retold here after PMC3322284 (Journal of Pharmacological and Toxicological Methods, 2012).

SMILES strings stand for the structures. Like-named read-outs stand apart in the source and are kept apart here. Non-standard residues stand in square brackets, D forms with d. Residues, ends and D or L forms follow the SMILES beside them. *: point of attachment. Sta = CC(C)C[C@H](N)[C@@H](O)CC(=O)O; Isovaleryl = CC(C)CC(=O)*

By IC50 is commonly meant the midpoint of a concentration-inhibition curve. Broadly, the Kd is the constant that tells how readily two partners part at equilibrium. High values mean weaker binding, low ones tighter binding.

For data set [1] the following is noted: humans; ref Fenner et al., 2009; cited from earlier work.
Data set [2] deals with T1, hamster Abcb1a Pgp (Cricetulus griseus, UniProt P21448). The experiment in a line: Fluorosome-trans-pgp.
T1 sequence (P21448 whole entry): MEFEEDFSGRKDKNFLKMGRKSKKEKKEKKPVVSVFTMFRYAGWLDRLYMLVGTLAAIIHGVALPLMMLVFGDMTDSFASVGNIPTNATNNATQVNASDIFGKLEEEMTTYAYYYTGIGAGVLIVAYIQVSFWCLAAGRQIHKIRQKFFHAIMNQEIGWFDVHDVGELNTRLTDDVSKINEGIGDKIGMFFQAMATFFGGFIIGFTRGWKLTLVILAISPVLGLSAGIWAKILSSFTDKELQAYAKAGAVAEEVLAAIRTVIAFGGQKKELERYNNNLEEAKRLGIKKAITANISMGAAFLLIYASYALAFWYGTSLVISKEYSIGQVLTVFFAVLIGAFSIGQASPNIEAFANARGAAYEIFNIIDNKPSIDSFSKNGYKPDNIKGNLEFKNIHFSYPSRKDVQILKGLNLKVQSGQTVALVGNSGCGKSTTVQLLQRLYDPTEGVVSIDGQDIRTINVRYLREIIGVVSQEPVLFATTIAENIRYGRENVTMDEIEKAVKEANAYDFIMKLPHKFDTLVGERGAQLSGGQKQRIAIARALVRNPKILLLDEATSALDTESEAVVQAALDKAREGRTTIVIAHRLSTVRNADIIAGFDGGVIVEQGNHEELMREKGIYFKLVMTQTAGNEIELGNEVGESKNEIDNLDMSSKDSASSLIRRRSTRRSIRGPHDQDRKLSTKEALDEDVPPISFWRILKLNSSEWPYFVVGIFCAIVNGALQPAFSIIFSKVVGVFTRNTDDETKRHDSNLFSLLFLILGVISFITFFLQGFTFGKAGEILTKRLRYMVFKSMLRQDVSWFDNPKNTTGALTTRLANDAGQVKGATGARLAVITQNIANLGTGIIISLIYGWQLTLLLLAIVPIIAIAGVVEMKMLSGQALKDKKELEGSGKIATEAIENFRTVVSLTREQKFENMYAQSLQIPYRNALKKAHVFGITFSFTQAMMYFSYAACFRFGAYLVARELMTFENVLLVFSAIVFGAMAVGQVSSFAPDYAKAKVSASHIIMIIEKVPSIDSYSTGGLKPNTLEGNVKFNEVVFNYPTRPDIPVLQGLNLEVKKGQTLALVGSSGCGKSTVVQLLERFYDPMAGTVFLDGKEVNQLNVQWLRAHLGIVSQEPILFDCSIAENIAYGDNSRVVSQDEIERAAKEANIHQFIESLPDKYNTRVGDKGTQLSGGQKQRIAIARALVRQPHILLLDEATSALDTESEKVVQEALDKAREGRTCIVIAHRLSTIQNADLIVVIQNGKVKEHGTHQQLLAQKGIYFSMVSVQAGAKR
A further data set has as its target human MDR1 Pgp (Homo sapiens, UniProt P08183). The experiment in a line: Inhibition of net [3H]digoxin transport in LLC-MDR1 cell monolayers. Type of data set: cell-based.
For data set [3], the target named is T1, hamster Abcb1a Pgp. The experiment in a line: biochemical. Type of data set: binding.
Where [4] appears, read: IC50,Fl, Table 2, half-maximal concentration for inhibition of transport in Fl-t-pgp.
The mark [5] stands for this setting: IC50 Fl-t-pgp, inhibition of S-HR transport, 2 mM ATP, 23°C.
The mark [6] stands for this setting: read-out: IC50 Fl-t-pgp, inhibition of S-HR transport, 2 mM ATP, 23°C.

Chain of human MDR1 Pgp (P08183 whole entry): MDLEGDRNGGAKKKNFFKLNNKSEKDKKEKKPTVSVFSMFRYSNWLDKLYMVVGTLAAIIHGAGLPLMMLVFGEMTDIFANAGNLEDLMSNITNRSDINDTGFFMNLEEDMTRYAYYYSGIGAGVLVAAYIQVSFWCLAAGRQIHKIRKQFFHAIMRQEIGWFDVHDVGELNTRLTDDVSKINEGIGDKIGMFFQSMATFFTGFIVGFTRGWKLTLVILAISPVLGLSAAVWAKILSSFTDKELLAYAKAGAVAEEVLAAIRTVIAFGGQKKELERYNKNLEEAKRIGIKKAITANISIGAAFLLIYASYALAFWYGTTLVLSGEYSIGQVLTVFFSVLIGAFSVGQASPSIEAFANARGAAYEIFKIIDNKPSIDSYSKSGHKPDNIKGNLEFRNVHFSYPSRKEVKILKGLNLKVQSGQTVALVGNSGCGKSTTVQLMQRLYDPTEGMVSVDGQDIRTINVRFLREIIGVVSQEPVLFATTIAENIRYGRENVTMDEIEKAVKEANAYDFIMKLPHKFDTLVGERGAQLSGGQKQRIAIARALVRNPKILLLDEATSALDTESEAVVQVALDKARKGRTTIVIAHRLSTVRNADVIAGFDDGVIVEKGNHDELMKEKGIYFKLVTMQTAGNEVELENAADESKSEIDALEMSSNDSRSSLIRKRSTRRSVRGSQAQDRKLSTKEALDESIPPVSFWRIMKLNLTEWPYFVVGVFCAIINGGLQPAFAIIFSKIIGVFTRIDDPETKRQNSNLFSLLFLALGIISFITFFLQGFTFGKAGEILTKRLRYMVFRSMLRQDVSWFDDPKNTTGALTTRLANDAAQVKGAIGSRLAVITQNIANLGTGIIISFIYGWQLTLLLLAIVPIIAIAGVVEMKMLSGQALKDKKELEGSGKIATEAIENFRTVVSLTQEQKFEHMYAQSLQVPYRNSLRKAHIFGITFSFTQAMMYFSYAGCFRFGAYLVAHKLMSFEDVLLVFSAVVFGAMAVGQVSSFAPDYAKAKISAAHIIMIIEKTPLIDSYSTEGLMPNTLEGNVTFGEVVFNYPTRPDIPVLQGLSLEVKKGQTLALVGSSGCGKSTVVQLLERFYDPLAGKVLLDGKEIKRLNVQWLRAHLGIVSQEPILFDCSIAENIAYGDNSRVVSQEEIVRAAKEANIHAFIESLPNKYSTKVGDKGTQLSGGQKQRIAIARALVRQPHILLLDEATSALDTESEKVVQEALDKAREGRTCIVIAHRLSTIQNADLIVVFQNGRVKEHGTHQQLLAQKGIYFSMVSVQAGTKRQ

As for `CCCCc1oc2ccccc2c1C(=O)c1cc(I)c(OCCN(CC)CC)c(I)c1` [Amiodarone], the “[I2] estimated gastrointestinal concentration of drug after oral dose” value in data set [1] is listed as 4693 µM.

Compound `CCc1oc2ccccc2c1C(=O)c1cc(Br)c(O)c(Br)c1` [Benzbromarone] came in with an IC50 on hamster Abcb1a Pgp [2] of 44 µM.

`C[C@H](CS)C(=O)N1CCC[C@H]1C(=O)O` [Captopril]: in data set [1], the “[I2] estimated gastrointestinal concentration of drug after oral dose” value was 230 µM and the “[I] peak plasma concentration of drug at steady state” value (“[I] peak plasma concentration of drug” below) is 0.23 µM. In addition, on human MDR1 Pgp, the IC50 is > 1000 µM.

On to `COc1ccccc1OCCNCC(O)COc1cccc2[nH]c3ccccc3c12` (centres unmarked) [Carvedilol], for which the “[I2] estimated gastrointestinal concentration of drug after oral dose” value in data set [1] is 61.5 µM. Further, in data set [1], the “[I] peak plasma concentration of drug” value was 0.13 µM. Besides, the values for the IC50 against hamster Abcb1a Pgp [2] (setting [4]), on hamster Abcb1a Pgp [2] (setting [5]) and against human MDR1 Pgp were 3.8 µM, 3.8 µM and 32 µM, respectively.

Consider `C[C@]12CC[C@H](O)C[C@H]1CC[C@@H]1[C@@H]2C[C@@H](O)[C@]2(C)[C@@H](C3=CC(=O)OC3)CC[C@]12O` [Digoxigenin], for which, on hamster Abcb1a Pgp [2], the IC50 is 520 µM.

The compound `C[C@H]1O[C@@H](O[C@H]2[C@@H](O)C[C@H](O[C@H]3[C@@H](O)C[C@H](O[C@H]4CC[C@@]5(C)[C@H](CC[C@@H]6[C@@H]5C[C@@H](O)[C@]5(C)[C@@H](C7=CC(=O)OC7)CC[C@]65O)C4)O[C@@H]3C)O[C@@H]2C)C[C@H](O)[C@@H]1O` [Digoxin] registered an IC50 against hamster Abcb1a Pgp [2] (setting [5]) of 80 µM.

As to `COc1ccc([C@@H]2Sc3ccccc3N(CCN(C)C)C(=O)[C@@H]2OC(C)=O)cc1` [Diltiazem], the IC50 amounted to 24.2 µM on hamster Abcb1a Pgp [2] (setting [4]) and 24 µM against hamster Abcb1a Pgp [2] (setting [5]).

As for `COc1cc2c(cc1OC)CN(CCc1ccc(NC(=O)c3cccc4c(=O)c5cccc(OC)c5[nH]c34)cc1)CC2` [Elacridar], the IC50 at hamster Abcb1a Pgp [2] (setting [5]) was found to be 0.1 µM. The Kd on hamster Abcb1a Pgp [3] came to 0.59 µM.

In turn, `COc1ccc2c(c1)c(CC(=O)O)c(C)n2C(=O)c1ccc(Cl)cc1` [Indomethacin] gave an IC50 at hamster Abcb1a Pgp [2] (setting [5]) of 51 µM.

As to `COC(=O)C1=C(C)NC(C)=C(C(=O)OC(C)C)C1c1cccc2nonc12` (centres unmarked) [Isradipine], the “[I2] estimated gastrointestinal concentration of drug after oral dose” value in data set [1] is listed as 161.5 µM. Also, the “[I] peak plasma concentration of drug” value in data set [1] is 0.02 µM. Also, the IC50 amounted to 6.6 µM against hamster Abcb1a Pgp [2] (setting [4]), 6.6 µM at hamster Abcb1a Pgp [2] (setting [5]) and 29 µM against human MDR1 Pgp.

Turning to `COc1ccc2c3c([nH]c2c1)[C@H](CC(C)C)N1C(=O)[C@H](CCC(=O)OC(C)(C)C)NC(=O)[C@@H]1C3` [Ko143], on hamster Abcb1a Pgp [2] (setting [6]), the IC50 is 7.5 µM.

For the compound `COCC(=O)O[C@]1(CCN(C)CCCc2nc3ccccc3[nH]2)CCc2cc(F)ccc2[C@@H]1C(C)C` [Mibefradil], the “[I2] estimated gastrointestinal concentration of drug after oral dose” value in data set [1] is listed as 1211 µM. The “[I] peak plasma concentration of drug” value in data set [1] was 2.42 µM. Also, the IC50 against hamster Abcb1a Pgp [2] (setting [4]) and against hamster Abcb1a Pgp [2] (setting [5]) was 7.1 µM each time.

Regarding `CC(=O)NC(CC(C)C)C(=O)NC(CC(C)C)C(=O)NC(Cc1ccc(O)cc1)C(N)=O` (stereo not drawn) [NAc-LLY-amide] (Ac-Leu-Leu-Tyr-NH2; configuration not given here), the IC50 on hamster Abcb1a Pgp [2] (setting [6]) worked out at 13 µM.

With `C=CCN1CC[C@]23c4c5ccc(O)c4O[C@H]2C(=O)CC[C@@]3(O)[C@H]1C5` [Naloxone], the IC50 on hamster Abcb1a Pgp [2] is 210 µM.

For the compound `Cc1c(O)cccc1C(=O)N[C@@H](CSc1ccccc1)[C@H](O)CN1C[C@H]2CCCC[C@H]2C[C@H]1C(=O)NC(C)(C)C` [Nelfinavir], on hamster Abcb1a Pgp [2] (setting [5]), inhibition was half-maximal at 0.59 µM (IC50). In addition, the Kd at hamster Abcb1a Pgp [3] came out at 0.98 µM.

Consider `COC(=O)C1=C(C)NC(C)=C(C(=O)OCCN(C)Cc2ccccc2)C1c1cccc([N+](=O)[O-])c1` (centres unmarked) [Nicardipine], for which the “[I2] estimated gastrointestinal concentration of drug after oral dose” value in data set [1] is given as 248 µM. In data set [1], the “[I] peak plasma concentration of drug” value is given as 0.18 µM. The IC50 at hamster Abcb1a Pgp [2] (setting [4]) and against hamster Abcb1a Pgp [2] (setting [5]) was 0.93 µM each time. Moreover, on hamster Abcb1a Pgp [3], the Kd was determined as 6.5 µM.

With `CCOC(=O)C1=C(C)NC(C)=C(C(=O)OC)C1c1cccc([N+](=O)[O-])c1` (centres unmarked) [Nitrendipine], in data set [1], the “[I2] estimated gastrointestinal concentration of drug after oral dose” value is on record as 222.0 µM and the “[I] peak plasma concentration of drug” value is on record as 0.03 µM. Besides, inhibition at hamster Abcb1a Pgp [2] (setting [4]) was half-maximal at 5.8 µM (IC50). At hamster Abcb1a Pgp [2] (setting [5]), this compound returned an IC50 of 5.8 µM.

Compound `CC(=O)O[C@H]1C(=O)[C@@]2(C)[C@H]([C@H](OC(=O)c3ccccc3)[C@]3(O)C[C@H](OC(=O)[C@H](O)[C@@H](NC(=O)c4ccccc4)c4ccccc4)C(C)=C1C3(C)C)[C@]1(OC(C)=O)CO[C@@H]1C[C@@H]2O` [Paclitaxel] yielded an IC50 at hamster Abcb1a Pgp [2] (setting [5]) of 1.2 µM. In addition, binding at hamster Abcb1a Pgp [3] was put at a Kd of 0.038 µM.

`CC(C)CC(=O)N[C@H](C(=O)N[C@H](C(=O)N[C@@H](CC(C)C)[C@@H](O)CC(=O)N[C@@H](C)C(=O)N[C@@H](CC(C)C)[C@@H](O)CC(=O)O)C(C)C)C(C)C` [Pepstatin A] (Isovaleryl-VV[Sta]A[Sta]-OH): the IC50 against hamster Abcb1a Pgp [2] (setting [5]) was 29 µM.

Compound `CCCN(CCC)S(=O)(=O)c1ccc(C(=O)O)cc1` [Probenecid] registered an IC50 on hamster Abcb1a Pgp [2] (setting [5]) of 240 µM.

At hamster Abcb1a Pgp [2] (setting [5]), `CC(=O)[C@H]1CC[C@H]2[C@@H]3CCC4=CC(=O)CC[C@]4(C)[C@H]3CC[C@]12C` [Progesterone] registered an IC50 of 3.7 µM.

Regarding `COc1ccccc1OCC(O)CN1CCN(CC(=O)Nc2c(C)cccc2C)CC1` (centres unmarked) [Ranolazine], the “[I2] estimated gastrointestinal concentration of drug after oral dose” value in data set [1] is given as 9356 µM. Besides, the “[I] peak plasma concentration of drug” value in data set [1] was 8.4 µM. Further, the IC50 came out at 64.1 µM at hamster Abcb1a Pgp [2] (setting [4]), 64 µM against hamster Abcb1a Pgp [2] (setting [5]) and 130 µM against human MDR1 Pgp.

With `COC(=O)[C@H]1[C@H]2C[C@@H]3c4[nH]c5cc(OC)ccc5c4CCN3C[C@H]2C[C@@H](OC(=O)c2cc(OC)c(OC)c(OC)c2)[C@@H]1OC` [Reserpine], half-maximal inhibition at hamster Abcb1a Pgp [2] (setting [5]) (IC50) was put at 0.31 µM. Binding at hamster Abcb1a Pgp [3] was characterised by a dissociation constant (Kd) of 0.73 µM.

`CN[C@H]1CC[C@@H](c2ccc(Cl)c(Cl)c2)c2ccccc21` [Sertraline]: the “[I2] estimated gastrointestinal concentration of drug after oral dose” value in data set [1] is given as 2612 µM. The “[I] peak plasma concentration of drug” value in data set [1] was 0.39 µM. Further, the IC50 at hamster Abcb1a Pgp [2] (setting [4]) and at hamster Abcb1a Pgp [2] (setting [5]) was 29 µM each time.

In turn, `COc1cc2c(cc1OC)CN(CCc1ccc(NC(=O)c3cc(OC)c(OC)cc3NC(=O)c3cnc4ccccc4c3)cc1)CC2` [Tariquidar] showed an IC50 against hamster Abcb1a Pgp [2] of 0.021 µM.

With `CCCc1nc2c(C)cc(-c3nc4ccccc4n3C)cc2n1Cc1ccc(-c2ccccc2C(=O)O)cc1` [Telmisartan], in data set [1], the “[I2] estimated gastrointestinal concentration of drug after oral dose” value is listed as 933 µM. Further, the “[I] peak plasma concentration of drug” value in data set [1] is on record as 1.11 µM. Moreover, the IC50 came to 0.12 µM against hamster Abcb1a Pgp [2] (setting [4]), 0.12 µM at hamster Abcb1a Pgp [2] (setting [5]) and 17 µM against human MDR1 Pgp.

With `Cc1c(C)c2c(c(C)c1O)CCC(C)(COc1ccc(CC3SC(=O)NC3=O)cc1)O2` (centres unmarked) [Troglitazone], the “[I2] estimated gastrointestinal concentration of drug after oral dose” value in data set [1] is listed as 3264 µM. The “[I] peak plasma concentration of drug” value in data set [1] is given as 3.62 µM. In addition, the IC50 is 5.2 µM against hamster Abcb1a Pgp [2] (setting [4]), 5.2 µM on hamster Abcb1a Pgp [2] (setting [5]) and 12 µM on human MDR1 Pgp.

Consider `C/C=C/C[C@@H](C)C(=O)[C@H]1C(=O)N[C@@H](C(C)C)C(=O)N(C)CC(=O)N(C)[C@@H](CC(C)C)C(=O)N[C@@H](C(C)C)C(=O)N(C)[C@@H](CC(C)C)C(=O)N[C@@H](C)C(=O)N[C@H](C)C(=O)N(C)[C@@H](CC(C)C)C(=O)N(C)[C@@H](CC(C)C)C(=O)N(C)[C@@H](C(C)C)C(=O)N1C` [Valspodar], for which, on hamster Abcb1a Pgp [2] (setting [5]), the IC50 worked out at 0.25 µM. At hamster Abcb1a Pgp [3], this compound had a Kd of 0.08 µM.

In the case of `O[C@@H](COc1cccc2ncccc12)CN1CCN([C@@H]2c3ccccc3[C@@H]3[C@H](c4ccccc42)C3(F)F)CC1` [Zosuquidar], on hamster Abcb1a Pgp [2] (setting [6]), the IC50 is 0.59 µM. Also, the affinity at hamster Abcb1a Pgp [3] (fluorescence quenching of purified Pgp in 2 mM CHAPS), expressed as Kd, was 0.055 µM.
